pEC50: −log10 of the molar value.
Experiments:
[1] = system: Human immunodeficiency virus 1; assay: Effective concentration required to inhibit HIV-1 replication in CEM/TK cell line; assay type: functional, organism-based; details: Human immunodeficiency virus 1, CEM-TK(-)
[2] = system: Human immunodeficiency virus 1; assay: Effective concentration required to inhibit HIV-1 replication in MT-4 cell line; assay type: functional, organism-based; details: Human immunodeficiency virus 1, MT4
CEM/TK- (Homo sapiens) = assay: Cytotoxic concentration required to reduce viability of uninfected cells in CEM/TK cell line
CEM-SS = assay: Cytotoxic concentration required to reduce viability of uninfected cells in CEM-SS cell line; assay type: functional; details: Homo sapiens
MT4 = assay: Cytotoxic concentration required to reduce viability of uninfected cells in MT-4 cell line; assay type: functional; details: Homo sapiens
[3] = system: Human immunodeficiency virus 1; assay: Effective concentration required to inhibit HIV-1 replication in CEM-SS cell line; assay type: functional, organism-based; details: Human immunodeficiency virus 1, CEM-SS
CEM-TK(-) (Homo sapiens) = assay: Compound was tested for its cytotoxic concentration required to reduce viability of uninfected cells in CEM/TK(-) cell line

| Compound | pEC50 [1] | pEC50 [2] | CC50 (CEM/TK- (Homo sapiens)) [nM] | CC50 (CEM-SS) [nM] | CC50 (MT4) [nM] | pEC50 [3] | CC50 (CEM-TK(-) (Homo sapiens)) [nM] |
| --- | --- | --- | --- | --- | --- | --- | --- |
| Cc1cn(C2CC(N=[N+]=[N-])C(COP(=O)(Nc3ccccc3)OCCSC(=O)C(C)(C)C)O2)c(=O)[nH]c1=O (stereo not given) | < 5.00 | 6.15 | > 10000 | > 10000 | > 10000 | 8.30 |  |
| COC(=O)[C@H](COC(C)=O)NP(=O)(OCCSC(=O)C(C)(C)C)OCC1OC(n2cc(C)c(=O)[nH]c2=O)CC1N=[N+]=[N-] (stereo not given in full) | 4.80 | 7.28 | > 100000 | > 100000 | > 100000 | 8.15 |  |
| CCC(NP(=O)(OCCSC(=O)C(C)(C)C)OCC1OC(n2cc(C)c(=O)[nH]c2=O)CC1N=[N+]=[N-])C(=O)OC (stereo not given) | 5.62 | 6.89 | > 100000 | > 100000 | > 100000 | 8.22 |  |
| Cc1cn(C2CC(N=[N+]=[N-])C(COP(=O)(NC(C)C)OCCSC(=O)C(C)(C)C)O2)c(=O)[nH]c1=O (stereo not given) | 6.12 | 6.89 | > 100000 | > 100000 | > 100000 | 7.70 |  |
| COC(=O)[C@H](C)NP(=O)(OC[C@H]1O[C@@H](n2cc(C)c(=O)[nH]c2=O)C[C@@H]1N=[N+]=[N-])Oc1ccccc1 (stereo not given in full) | 5.37 | 6.47 | > 100000 | > 100000 | > 10000 | 7.30 |  |
| COC(=O)C(C)(C)NP(=O)(OCCSC(=O)C(C)(C)C)OCC1OC(n2cc(C)c(=O)[nH]c2=O)CC1N=[N+]=[N-] (stereo not given) | 5.54 | 6.27 |  | > 100000 | > 100000 | 7.10 | > 100000 |
| COC(=O)[C@H](Cc1ccccc1)NP(=O)(OCCSC(=O)C(C)(C)C)OCC1OC(n2cc(C)c(=O)[nH]c2=O)CC1N=[N+]=[N-] (stereo not given in full) | 5.64 | 6.60 | > 10000 | > 100000 | > 10000 | 7.57 |  |
| Cc1cn([C@H]2C[C@H](N=[N+]=[N-])[C@@H](CO)O2)c(=O)[nH]c1=O [ZIDOVUDINE] | < 4.00 | 7.77 | > 100000 | > 100000 | 75000 | 8.22 |  |
| COC(=O)CNP(=O)(OCCSC(=O)C(C)(C)C)OCC1OC(n2cc(C)c(=O)[nH]c2=O)CC1N=[N+]=[N-] (stereo not given) | 5.85 | 6.35 | > 100000 | > 100000 | > 100000 | 8.05 |  |
| COC(=O)[C@H](C)NP(=O)(OCCSC(=O)C(C)(C)C)OCC1OC(n2cc(C)c(=O)[nH]c2=O)CC1N=[N+]=[N-] (stereo not given in full) | 5.37 | 6.47 | > 100000 | > 100000 | > 100000 | 7.27 |  |
| COC(=O)[C@H](CO[Si](C)(C)C(C)(C)C)NP(=O)(OCCSC(=O)C(C)(C)C)OCC1OC(n2cc(C)c(=O)[nH]c2=O)CC1N=[N+]=[N-] (stereo not given in full) | 6.00 | 6.40 | > 10000 | > 10000 | > 10000 | 7.00 |  |
| COC(=O)[C@@H](C)NP(=O)(OCCSC(=O)C(C)(C)C)OCC1OC(n2cc(C)c(=O)[nH]c2=O)CC1N=[N+]=[N-] (stereo not given in full) | 5.62 | 6.35 | > 100000 | > 100000 | > 100000 | 7.15 |  |
| COC(=O)[C@H](Cc1ccc(O)cc1)NP(=O)(OCCSC(=O)C(C)(C)C)OCC1OC(n2cc(C)c(=O)[nH]c2=O)CC1N=[N+]=[N-] (stereo not given in full) | 5.28 | 6.13 | > 100000 | > 100000 | > 100000 | 7.05 |  |
| Cc1cn(C2CC(N=[N+]=[N-])C(COP(=O)(OCCSC(=O)C(C)(C)C)N3CCCCC3)O2)c(=O)[nH]c1=O (stereo not given) | 5.28 | 6.66 | > 100000 | > 100000 | > 100000 | 7.70 |  |
| COC(=O)C(C)NP(=O)(OCCSC(=O)C(C)(C)C)OCC1OC(n2cc(C)c(=O)[nH]c2=O)CC1N=[N+]=[N-] (stereo not given) | 5.68 | 6.38 | > 100000 | > 100000 | > 100000 | 7.70 |  |

From ChEMBL document CHEMBL1145130, “S-acyl-2-thioethyl phosphoramidate diester derivatives as mononucleotide prodrugs” (J Med Chem, 2003)
